Reference: paper PMC8967002, “Quantitative input–output dynamics of a c-di-GMP signal transduction cascade in Vibrio cholerae” (PLoS Biology, 2022)

Key:
NspS-MbaA = NspS-MbaA (Vibrio cholerae, UniProt Q9KU25); settings: ΔnspC ΔpotD1 V. cholerae cells (no norspermidine synthesis or import); M9 minimal medium; activates MbaA diguanylate cyclase output via NspS
NspS-6xHis = NspS-6xHis (Vibrio cholerae, UniProt Q9KU25); assay: biochemical
NspS-6xHis, sequence (Q9KU25 35-359 limits assumed): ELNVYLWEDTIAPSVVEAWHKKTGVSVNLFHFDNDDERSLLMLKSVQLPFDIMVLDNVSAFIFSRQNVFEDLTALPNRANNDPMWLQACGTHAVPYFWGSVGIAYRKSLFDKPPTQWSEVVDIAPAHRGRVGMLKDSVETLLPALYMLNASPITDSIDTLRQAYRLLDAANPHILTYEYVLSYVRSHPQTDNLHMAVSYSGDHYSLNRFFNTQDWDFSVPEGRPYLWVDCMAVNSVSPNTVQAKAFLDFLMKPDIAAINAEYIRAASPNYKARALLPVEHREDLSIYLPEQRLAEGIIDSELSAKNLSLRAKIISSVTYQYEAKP

NspS-MbaA, sequence (Q9KU25 whole entry, looked up): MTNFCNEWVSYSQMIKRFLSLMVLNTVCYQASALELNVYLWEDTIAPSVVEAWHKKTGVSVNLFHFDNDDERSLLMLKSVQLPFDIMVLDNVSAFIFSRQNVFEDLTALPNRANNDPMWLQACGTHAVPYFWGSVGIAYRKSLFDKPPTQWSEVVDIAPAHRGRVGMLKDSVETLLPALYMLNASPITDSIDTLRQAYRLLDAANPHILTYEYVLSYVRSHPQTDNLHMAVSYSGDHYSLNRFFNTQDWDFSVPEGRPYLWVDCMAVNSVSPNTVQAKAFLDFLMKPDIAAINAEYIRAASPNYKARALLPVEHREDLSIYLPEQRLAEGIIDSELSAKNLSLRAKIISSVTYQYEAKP

SMILES	EC50 (NspS-MbaA) [µM]	Kd (NspS-6xHis) [µM]
NCCCNCCCN [norspermidine]	0.001 to 0.005	0.0671 ± 0.0122
NCCCCNCCCN [spermidine]	–	0.0484 ± 0.0147
